Tests used:
[1] = molecular target: IL-17A(FLAG-Tagged): IL-17RA(His-Tagged) binding (Homo sapiens, UniProt Q16552, K93Q); assay: IL-17A(FLAG-tagged):IL-17RA(His-tagged) binding disruption Eu-HTRF assay, Protocol 2; conditions: FLAG-IL-17A 1 nM; average if tested more than once
From the text: IL-17A(FLAG-Tagged): IL-17RA(His-Tagged) Binding Disruption Eu-HTRF Assay
An antibody directed against the FLAG tag of IL-17A (SEQ ID NO: 1) is labeled with the HTRF donor chromophore (Europium-cryptate). IL-17A is present as a dimer that is “locked into” this quaternary structure due to the formation of loop-spanning […] disulfide bridges. The construct of IL-17RA used in the assay excludes the […] portion of the receptor and is fused to a C-terminal 10×His tag (SEQ ID NO:2). An antibody directed against the His tag of the IL-17RA chimera is labeled with the HTRF acceptor chromophore (“D2”). The fluorescence-resonance energy transfer (FRET) depends on the vicinity of the donor chromophore to the acceptor, and interruption of the binding between the IL-17A and IL-17RA causes the reduction/loss of FRET. Therefore, this assay allows to evaluate the compound effect on the binding IL-17A and IL-17RA by monitoring the fluorescence intensity of donor vs acceptor. The assay was run using either Protocol 1 or Protocol 2 as described below.
Protocol 2. 40 nl of 2-fold serial diluted compound solution for total 22 dilution points is added into each well of a 1536-well, white, low-volume, non-binding plate (Greiner #782904), then 2 μl of FLAG tagged IL-17A at 2×final concentration (1 nM) in solution of PBS+0.01% Triton-X100 is added to each well. The assay plate is briefly centrifuged then incubated for 1 h at rt. A mixed solution is prepared containing 2×5 nM 10HIS×IL-17RA, 2×2.5 nM Eu-anti-FLAG (CISBIO), 2×5 nM D2-anti-HIS (CISBIO) in PBS+0.01% Triton-X100+200 mM Potassium Fluoride (Sigma 60238) and 2 μl of mix is added to each well of the assay plate. The plate is briefly centrifuged then incubated for 2 h at rt. The HTRF intensities at the wavelength of donor (615 nm) and acceptor (665 nm) are measured using BMG Pherastar. The ratio between intensities at two wavelengths is calculated and plotted against the compound concentration and the data is fitted to a one-site competition model to yield IC50 of the compound.

[2] = test system: IL-17A-induced G-CSF production in human normal keratinocyte (NHK); assay: NHK assay: IL-17A-induced G-CSF production in normal human keratinocytes; format: cell-based; conditions: Homo sapiens, Keratinocyte, 24 h, IL-17A 5 ng/mL, G-CSF by HTRF, average if tested more than once
In short: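 IC50 derives from G-CSF in supernatants, quantified by HTRF from a standard curve, with CellTiter-Glo viability compared to DMSO control. Before a 24 h, 37°C culture of normal human keratinocytes at 3000–4000 cells/well, compound dilutions were preincubated 1 h at rt with human IL-17A (5 ng/mL final), with 0.2% DMSO and 5% FBS.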

Sequence of UniProt Q16552 (Q16552 with tags, fused parts or gaps K93Q): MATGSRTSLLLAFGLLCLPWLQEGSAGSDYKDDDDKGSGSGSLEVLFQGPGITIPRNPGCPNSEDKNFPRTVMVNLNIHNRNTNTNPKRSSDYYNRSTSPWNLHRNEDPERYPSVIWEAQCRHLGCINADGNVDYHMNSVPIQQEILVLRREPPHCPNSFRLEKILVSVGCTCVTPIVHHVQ

| Structure (SMILES) | IC50 [1] [nM] | IC50 [2] [nM] |
| --- | --- | --- |
| Cc1nonc1C(=O)N[C@H](c1cn2ncc(C(C3CCOCC3)N3CC(F)(F)CNC3=O)cc2n1)C1CCC(F)(F)CC1 (single isomer, unassigned) [Example 59, N—((S)-(7-((R*)-(5,5-Difluoro-2-oxotetrahydropyrimidin-1(2H)-yl)(tetrahydro-2H-pyran-4-yl)methyl)imidazo[1,2-b]pyridazin-2-yl)(4,4-difluorocyclohexyl)methyl)-4-methyl-1,2,5-oxadiazole-3-carboxamide] | < 50 | < 50 |
| COC[C@H](c1cnn2cc([C@H](CCC(C)(C)C(F)(F)F)NC(=O)c3nonc3C(F)F)nc2c1)N1CC(F)(F)CNC1=O [Example 110, N—((S)-1-(7-((S)-1-(5,5-Difluoro-2-oxotetrahydropyrimidin-1(2H)-yl)-2-methoxyethyl)imidazo[1,2-b]pyridazin-2-yl)-5,5,5-trifluoro-4,4-dimethylpentyl)-4-(difluoromethyl)-1,2,5-oxadiazole-3-carboxamide] | < 50 | < 50 |
| COc1nonc1C(=O)N[C@@H](CCC(C)(C)C(F)(F)F)c1cn2ncc([C@@H](COC3CC3)N3CC(F)(F)CNC3=O)cc2n1 [Example 122, N—((S)-1-(7-((S)-2-Cyclopropoxy-1-(5,5-difluoro-2-oxotetrahydropyrimidin-1(2H)-yl)ethyl)imidazo[1,2-b]pyridazin-2-yl)-5,5,5-trifluoro-4,4-dimethylpentyl)-4-methoxy-1,2,5-oxadiazole-3-carboxamide] | < 50 | < 50 |
| COC[C@H](c1cnn2cc([C@@H](NC(=O)c3nocc3CC(F)(F)F)C3CCC(F)(F)CC3)nc2c1)N1CC(F)(F)CNC1=O [Example 106, N—((S)-(7-((S)-1-(5,5-Difluoro-2-oxotetrahydropyrimidin-1(2H)-yl)-2-methoxyethyl)imidazo[1,2-b]pyridazin-2-yl)(4,4-difluorocyclohexyl)methyl)-4-(2,2,2-trifluoroethyl)isoxazole-3-carboxamide] | < 50 | < 50 |
| [2H]C1([2H])NC(=O)N([C@H](COC)c2cnn3cc([C@H](CCC(C)(C)C(F)(F)F)NC(=O)c4nonc4C(F)F)nc3c2)C([2H])([2H])C1(F)F [Example 81, N—((S)-1-(7-((S)-1-(5,5-Difluoro-2-oxotetrahydropyrimidin-1(2H)-yl-4,4,6,6-d4)-2-methoxyethyl)imidazo[1,2-b]pyridazin-2-yl)-5,5,5-trifluoro-4,4-dimethylpentyl)-4-(difluoromethyl)-1,2,5-oxadiazole-3-carboxamide] | < 50 | < 50 |
| O=C(N[C@H](c1cn2ncc([C@@H](C(F)F)N3CC(F)(F)CNC3=O)cc2n1)C1CCC(F)(F)CC1)c1nonc1C1CC1 [Example 89, 4-Cyclopropyl-N—((S)-(7-((S)-1-(5,5-difluoro-2-oxotetrahydropyrimidin-1(2H)-yl)-2,2-difluoroethyl)imidazo[1,2-b]pyridazin-2-yl)(4,4-difluorocyclohexyl)methyl)-1,2,5-oxadiazole-3-carboxamide] | < 50 | < 50 |
| COC[C@H](c1cnn2cc([C@@H](NC(=O)c3nonc3C(F)F)C3CCC(F)(F)CC3)nc2c1)N1CC(F)(F)CNC1=O [Example 79, N—((S)-(7-((S)-1-(5,5-Difluoro-2-oxotetrahydropyrimidin-1(2H)-yl)-2-methoxyethyl)imidazo[1,2-b]pyridazin-2-yl)(4,4-difluorocyclohexyl)methyl)-4-(difluoromethyl)-1,2,5-oxadiazole-3-carboxamide] | < 50 | < 50 |
| COC[C@H](c1cnn2cc([C@@H](NC(=O)c3nonc3C3CC3)[C@@H](C)OC3(C(F)(F)F)CC3)nc2c1)N1CC(F)(F)CNC1=O (relative stereo) [Example 90, 4-Cyclopropyl-N-((1R*,2R*)-1-(7-((S)-1-(5,5-difluoro-2-oxotetrahydropyrimidin-1(2H)-yl)-2-methoxyethyl)imidazo[1,2-b]pyridazin-2-yl)-2-(1-(trifluoromethyl)cyclopropoxy)propyl)-1,2,5-oxadiazole-3-carboxamide] | < 50 | < 50 |
| CC(C)(CC[C@H](NC(=O)c1nonc1C1CC1)c1cn2ncc(CN3CC(F)(F)CNC3=O)cc2n1)C(F)(F)F [Example 114, (S)-4-Cyclopropyl-N-(1-(7-((5,5-difluoro-2-oxotetrahydropyrimidin-1(2H)-yl)methyl)imidazo[1,2-b]pyridazin-2-yl)-5,5,5-trifluoro-4,4-dimethylpentyl)-1,2,5-oxadiazole-3-carboxamide] | < 50 | < 50 |
| COC[C@H](c1cnn2cc([C@@H](NC(=O)c3nonc3C(C)(F)F)C3CCC(F)(F)CC3)nc2c1)N1CC(F)(F)CNC1=O [Example 127, N—((S)-(7-((S)-1-(5,5-Difluoro-2-oxotetrahydropyrimidin-1(2H)-yl)-2-methoxyethyl)imidazo[1,2-b]pyridazin-2-yl)(4,4-difluorocyclohexyl)methyl)-4-(1,1-difluoroethyl)-1,2,5-oxadiazole-3-carboxamide] | < 50 | < 50 |
| COC[C@H](c1cnn2cc([C@@H](NC(=O)c3nonc3C3CC3(F)F)C3CCC(F)(F)CC3)nc2c1)N1CC(F)(F)CNC1=O (single isomer, unassigned) [Example 128, N—((S)-(7-((S)-1-(5,5-Difluoro-2-oxotetrahydropyrimidin-1(2H)-yl)-2-methoxyethyl)imidazo[1,2-b]pyridazin-2-yl)(4,4-difluorocyclohexyl)methyl)-4-((R*)-2,2-difluorocyclopropyl)-1,2,5-oxadiazole-3-carboxamide] | < 50 | < 50 |
| COC[C@H](c1cnn2cc(C(CCC(C)(C)C(F)(F)F)NC(=O)c3nonc3C)nc2c1)N1CC(F)(F)CNC1=O (single isomer, unassigned) [Example 45, N—((S*)-1-(7-((S)-1-(5,5-Difluoro-2-oxotetrahydropyrimidin-1(2H)-yl)-2-methoxyethyl)imidazo [1,2-b]pyridazin-2-yl)-5,5,5-trifluoro-4,4-dimethylpentyl)-4-methyl-1,2,5-oxadiazole-3-carboxamide] | < 50 | < 50 |
| Cc1nonc1C(=O)N[C@@H](CCC(C)(C)C(F)(F)F)c1cn2ncc(CN3CC(F)(F)CNC3=O)cc2n1 [Example 115, (S)—N-(1-(7-((5,5-Difluoro-2-oxotetrahydropyrimidin-1(2H)-yl)methyl)imidazo[1,2-b]pyridazin-2-yl)-5,5,5-trifluoro-4,4-dimethylpentyl)-4-methyl-1,2,5-oxadiazole-3-carboxamide] | < 50 | 50 to 100 |
| COC[C@H](c1cnn2cc([C@@H](NC(=O)c3nonc3OC)C3CCC(F)(F)CC3)nc2c1)N1CC(F)(F)C(F)(F)CNC1=O [Example 124, N—((S)-(4,4-Difluorocyclohexyl)(7-((S)-2-methoxy-1-(5,5,6,6-tetrafluoro-2-oxo-1,3-diazepan-1-yl)ethyl)imidazo[1,2-b]pyridazin-2-yl)methyl)-4-methoxy-1,2,5-oxadiazole-3-carboxamide] | < 50 | 50 to 100 |
| [2H]C1([2H])NC(=O)N([C@H](COC)c2cnn3cc([C@H](CCC(C)(C)C(F)(F)F)NC(=O)c4nonc4C(F)(F)F)nc3c2)C([2H])([2H])C1(F)F [Example 83, N—((S)-1-(7-((S)-1-(5,5-Difluoro-2-oxotetrahydropyrimidin-1(2H)-yl-4,4,6,6-d4)-2-methoxyethyl)imidazo[1,2-b]pyridazin-2-yl)-5,5,5-trifluoro-4,4-dimethylpentyl)-4-(trifluoromethyl)-1,2,5-oxadiazole-3-carboxamide] | < 50 | < 50 |
| COC[C@H](c1cnn2cc([C@@H](NC(=O)c3nonc3C3CC3)[C@H](C)OC3CC3)nc2c1)N1CC(F)(F)CNC1=O (relative stereo) [Example 55, N-((1R*,2S*)-2-cyclopropoxy-1-(7-((S)-1-(5,5-difluoro-2-oxotetrahydropyrimidin-1(2H)-yl)-2-methoxyethyl)imidazo[1,2-b]pyridazin-2-yl)propyl)-4-cyclopropyl-1,2,5-oxadiazole-3-carboxamide] | > 100 | > 100 |

Reference: US12173007B2, “Imidazopyridazine IL-17 inhibitor compounds” (Janssen Pharmaceutica NV, priority 2021, dated 2024)
